Test results as given in patent publication US20090314217A1, “APPARATUS AND METHOD FOR TREATING NON-HUMAN MAMMALS” (Under The Boardwalk Properties 8 (Proprietary) Limited, priority 2006, published 2009).

Test: Blood tests on the horses on the days of the race (Table 1)
Type: in vivo, horse
Conditions: for PCT: day 1 value 0.04; for MON = monocytes: day 1 value 0.57; for RBC = red blood cell count: day 1 value 10.2; for WBC = white blood cell count: day 1 value 12.8; for MCH = mean corpuscular hemoglobin: day 1 value 15.1; for RDWc: day 1 value 22.5; for PDW: day 1 value 32.6; for TBIL = total biliruben: day 1 value 37; for MCV = mean corpuscular volume: day 1 value 38; for MCHC = mean corpuscular hemoglobin concentration: day 1 value 40.0; for TP = total protein: day 1 value 79; for PLT = platelets: day 1 value 83; for Na+ = sodium: day 1 value 139
Experimental: The apparatus 10 was used in a confidential trial to treat five horses taking part in an endurance race. The five horses were called Moniq, Shamon, Pauli, Viola and Ophelia. During treatment, the average temperature inside the enclosure 22 was between 42° C. and 45° C. and an oxygen flow rate of 1 l/min was supplied to the ozonator 52. During treatment, the average heart-rate for the non-accustomed horses was 42 beats per minute. The superficial skin temperature measured on the neck and the point of the shoulder of the horses was 39° C. in each case.
Table 1 provides information on the blood tests conducted on the five horses, on the days of the race as indicated.

[1] = horse Moniq, race day 2, treated days 1 and 2
[2] = horse Moniq, race day 2, treated days 1 and 2, day 1 value 4.4
[3] = horse Moniq, race day 3, treated days 1 and 2
[4] = horse Moniq, race day 3, treated days 1 and 2, day 1 value 4.4
[5] = horse Pauli, race day 2, pre-treated before race

SMILES: O=[O+][O-] [ozone]
- PCT [1]: 0.07%
- MON = monocytes [1]: 6e+07 L⁻¹
- LYM = lymphocytes (horse Moniq, race day 2, treated days 1 and 2, day 1 value 1.80): 1.96e+09 L⁻¹
- CA++ = calcium (horse Moniq, race day 2, treated days 1 and 2, day 1 value 2.98): 2.98 mmol/L
- K+ = potassium [2]: 4.3 mmol/L
- MON % = monocytes percentage [2]: 0.6%
- GLU = glucose (horse Moniq, race day 2, treated days 1 and 2, day 1 value 4.7): 6.1 mmol/L
- BUN = blood urea nitrogen (horse Moniq, race day 2, treated days 1 and 2, day 1 value 8): 9 mmol/L
- RBC = red blood cell count [1]: 9.21e+12 L⁻¹
- GRA = granulocytes (horse Moniq, race day 2, treated days 1 and 2, day 1 value 10.5): 7.55e+09 L⁻¹
- GGT = gamma glutamiel transferase (horse Moniq, race day 2, treated days 1 and 2, day 1 value 12): 11 Units/liter
- WBC = white blood cell count [1]: 9.56e+09 L⁻¹
- LY % = lymphocytes percentage (horse Moniq, race day 2, treated days 1 and 2, day 1 value 14.0): 20.5%
- MCH = mean corpuscular hemoglobin [1]: 14.7 pg
- HB = hemoglobin (horse Moniq, race day 2, treated days 1 and 2, day 1 value 15.5): 13.6 d/deciliter
- RDWc [1]: 22.2%
- PDW [1]: 37.2
- ALB = albumin (horse Moniq, race day 2, treated days 1 and 2, day 1 value 36): 34 gram/liter
- TBIL = total biliruben [1]: 58 µmol/L
- MCV = mean corpuscular volume [1]: 37 femtoliter
- MCHC = mean corpuscular hemoglobin concentration [1]: 39.6 gram/deciliter
- GLOB = globulin (horse Moniq, race day 2, treated days 1 and 2, day 1 value 43): 40 gram/liter
- TP = total protein [1]: 75 gram/liter
- GR % = granulocytes percentage (horse Moniq, race day 2, treated days 1 and 2, day 1 value 81.6): 78.9%
- PLT = platelets [1]: 1.24e+11 L⁻¹
- CRE = creatinine (horse Moniq, race day 2, treated days 1 and 2, day 1 value 96): 106 µmol/L
- Na+ = sodium [1]: 137 mmol/L
- AST = aspertate amino transferase (horse Moniq, race day 2, treated days 1 and 2, day 1 value 468): 564 Units/liter
- CK = creatine kinase (horse Moniq, race day 2, treated days 1 and 2, day 1 value 3873): 706 International Units/liter
- PCT [3]: 0.07%
- MON = monocytes [3]: 6e+07 L⁻¹
- LYM = lymphocytes (horse Moniq, race day 3, treated days 1 and 2, day 1 value 1.80): 1.06e+09 L⁻¹
- CA++ = calcium (horse Moniq, race day 3, treated days 1 and 2, day 1 value 2.98): 2.98 mmol/L
- K+ = potassium [4]: 4.3 mmol/L
- MON % = monocytes percentage [4]: 0.6%
- GLU = glucose (horse Moniq, race day 3, treated days 1 and 2, day 1 value 4.7): 6.1 mmol/L
- BUN = blood urea nitrogen (horse Moniq, race day 3, treated days 1 and 2, day 1 value 8): 9 mmol/L
- RBC = red blood cell count [3]: 9.21e+12 L⁻¹
- GRA = granulocytes (horse Moniq, race day 3, treated days 1 and 2, day 1 value 10.5): 7.55e+09 L⁻¹
- GGT = gamma glutamiel transferase (horse Moniq, race day 3, treated days 1 and 2, day 1 value 12): 11 Units/liter
- WBC = white blood cell count [3]: 9.56e+09 L⁻¹
- LY % = lymphocytes percentage (horse Moniq, race day 3, treated days 1 and 2, day 1 value 14.0): 20.5%
- MCH = mean corpuscular hemoglobin [3]: 14.7 pg
- HB = hemoglobin (horse Moniq, race day 3, treated days 1 and 2, day 1 value 15.5): 17.0 d/deciliter
- RDWc [3]: 22.2%
- PDW [3]: 37.2
- ALB = albumin (horse Moniq, race day 3, treated days 1 and 2, day 1 value 36): 34 gram/liter
- TBIL = total biliruben [3]: 58 µmol/L
- MCV = mean corpuscular volume [3]: 37 femtoliter
- MCHC = mean corpuscular hemoglobin concentration [3]: 39.6 gram/deciliter
- GLOB = globulin (horse Moniq, race day 3, treated days 1 and 2, day 1 value 43): 40 gram/liter
- TP = total protein [3]: 75 gram/liter
- GR % = granulocytes percentage (horse Moniq, race day 3, treated days 1 and 2, day 1 value 81.6): 78.8%
- PLT = platelets [3]: 1.27e+11 L⁻¹
- CRE = creatinine (horse Moniq, race day 3, treated days 1 and 2, day 1 value 96): 106 µmol/L
- Na+ = sodium [3]: 137 mmol/L
- AST = aspertate amino transferase (horse Moniq, race day 3, treated days 1 and 2, day 1 value 468): 564 Units/liter
- CK = creatine kinase (horse Moniq, race day 3, treated days 1 and 2, day 1 value 3873): 706 International Units/liter
- ALB = albumin [5]: 32 gram/liter
- AST = aspertate amino transferase [5]: 379 Units/liter
- BUN = blood urea nitrogen [5]: 9 mmol/L
- CA++ = calcium [5]: 3.13 mmol/L
- CK = creatine kinase [5]: 1378 International Units/liter
- CRE = creatinine [5]: 129 µmol/L
- GGT = gamma glutamiel transferase [5]: 19 Units/liter
- GLOB = globulin [5]: 47 gram/liter
- GLU = glucose [5]: *6.9 mmol/liter
- GR % = granulocytes percentage [5]: 88.0%
- GRA = granulocytes [5]: 1.76e+10 L⁻¹
- HB = hemoglobin [5]: 16.6 d/deciliter
- K+ = potassium [5]: 5.1 mmol/L
- LY % = lymphocytes percentage [5]: 7.0%
- LYM = lymphocytes [5]: 1.39e+09 L⁻¹
